From patent US20060111305A1, “Metabolites of certain [1,4]diazepino[6,7,1-ij]quinoline derivatives and methods of preparation and use thereof” (Wyeth, priority 2004, published 2006)
Several values for one entry are separate records, joined by “and”; a condition that tells them apart may be missing. Identical values can stand only once. Each block holds one compound with its values, some of them ahead of it.

How the values were obtained:
[1] = tested on: UGT (UDPGA-dependent glucuronidation); test: Incubation of [14C]DCDQ with human liver microsomes (Km values, metabolite formation); format: in vitro ADME; conditions: pH 7.4; 0.5 mg/mL human liver microsomes, [14C]DCDQ 0.5-100 μM, UDPGA, 10 min
Method: [^14C]DCDQ was mixed with non-radiolabeled DCDQ (1:3 or 1:5) in the incubations. Microsomal incubations consisted of [^14C]DCDQ, magnesium chloride (10 mM) and liver microsomes incubated in 0.5 mL of 0.1 M potassium phosphate buffer, pH 7.4. [^14C]DCDQ (20 μL) in water was added to the incubation tubes containing buffer, magnesium chloride solution and microsomes. After mixing, the tubes were pre-incubated for 2 minutes in a shaking water bath at 37° C. The reactions were initiated by the addition of UDPGA or the NADPH regenerating system. UDPGA was added to incubations as a 50 μL aliquot of a 20 mM solution in water, to give a final concentration of 2 mM. An NADPH regenerating system (30 μL) was added to incubations to evaluate CYP450-mediated metabolism. The NADPH regenerating system consisted of glucose-6-phosphate (2 mg/mL), glucose-6-phosphate dehydrogenase (0.8 units/mL) and NADP^+ (2 mg/mL). Control incubations were conducted under the same conditions, but without the NADPH generating system, UDPGA or microsomes. All incubations were performed in duplicate. Incubations were stopped by the addition of 0.5 mL ice-cold methanol. Samples were vortex-mixed. Denatured proteins were separated by centrifugation at 4300 rpm and 4° C. for 10 minutes (Model T21 super centrifuge, Sorvall). The protein pellets were extracted with 0.5 mL of methanol. The supernatant was combined for each sample, mixed and evaporated to a volume of about 0.3 mL under a nitrogen stream in a Zymark TurboVap LV evaporator (Caliper Life Science, Hopkinton, Mass.). The concentrated sample was centrifuged and aliquots were radioassayed and analyzed by HPLC. This method recovered an average of 92.1% of the radioactivity from the reaction mixture.
Initial rate conditions were determined for DCDQ metabolism in incubations with human liver microsomes in the presence of NADPH or UDPGA. Incubations for the time course study contained 20 μM of [^14C]DCDQ and 0.5 mg/mL of microsomal proteins, and were incubated at 37° C. with mild shaking for 0, 5, 10, 20, 30, 40, 50 and 60 minutes. The protein dependence study was conducted with 20 μM of [^14C]DCDQ incubated for 20 minutes with 0, 0.1, 0.25, 0.5, 0.75 and 1.0 mg/mL of microsomal proteins.
The Km values were determined with 0.5 mg/mL of human liver microsomes incubated with [^14C]DCDQ for 20 minutes with the NADPH regenerating system or for 10 minutes with UDPGA. [^14C]DCDQ concentrations used were 0.5,1, 5, 10, 25, 50, 75 and 100 μM.
To evaluate species differences in cytochrome P450- and UGT-mediated metabolism, [^14C]DCDQ was incubated for 20 minutes with 0.5 mg/mL liver microsomal proteins from mice, rats, dogs or humans in the presence of the NADPH regenerating system or UDPGA. The assay conditions were the same as described above, and DCDQ concentrations were 12 μM and 56 μM for cytochrome P450- and UGT-mediated metabolism, respectively.
A Waters model 2690 HPLC system (Waters Corp., Milford, Mass.) with a built-in autosampler was used for analysis. Separations were accomplished on a Phenomenex Luna C18(2) column (2×150 mm, 5 μm) (Phenomenex, Torrance, Calif.) coupled with a filter (4×2 mm) cartridge. A variable wavelength UV detector set to monitor 250 nm and Flo-One β Model A525 radioactivity flow detector (Perkin Elmer) with a 250 μL LQTR flow cell were used for data acquisition. The flow rate of Ultima Flow M scintillation fluid was 1 mL/min, providing a mixing ratio of scintillation cocktail to mobile phase of 5:1. The sample chamber in the autosampler was maintained at 4° C., while the column was at ambient temperature of about 20° C. The mobile phase consisted of 10 mM ammonium acetate, pH 4.5 (A) and methanol (B) and was delivered at 0.2 mL/min. The linear gradient conditions were as follows: […]

[2] = Rat blood and plasma radioactivity concentrations after single oral 5 mg/kg [14C]DCDQ; format: in vivo, Sprague-Dawley rats; conditions: for Blood concentration of radioactivity, individuals / Plasma concentration of radioactivity, individuals: 5 mg/kg
Method: Dose preparation, animal dosing, and specimen collection were performed at Wyeth Research, Collegeville, Pa. The dose vehicle contained 2% (w/w) Tween 80 and 0.5% methylcellulose in water. […] Male rats weighing from 318 to 345 grams and female rats weighing from 227 to 255 grams at the time of dosing were purchased from Charles River Laboratories, Wilmington, Mass. Non-fasted rats were given a single 5 mg/kg (˜300 μCi/kg) dose of DCDQ at a volume of 2.5 mL/kg via intragastric gavage. Animals were provided Purina rat chow and water ad libitum, and were kept individually in metabolism cages. Male rats were sacrificed at 2, 4, 8 and 24 hour after dose administration. Female rats were sacrificed at 2 and 8 hour after dose administration. At sacrifice, blood samples were collected by cardiac puncture into tubes containing EDTA as the anticoagulant and placing them on ice. Aliquots of 50 μL were removed for combustion and determination of radioactivity content. Plasma was immediately obtained from the remaining blood by centrifugation at 4° C. Brains were excised after perfusion with 50 mL of chilled sterile saline. Urine samples were collected on dry ice at intervals of 0-8 and 8-24 hour post-dosing. Feces were collected at intervals of 0-8 and 8-24 hr post-dosing at room temperature and were homogenized as described previously. The biological specimens and aliquots of the dosing solution at pre- and post-dose were stored at approximately −70° C. until analyzed. Plasma (20 μL) and urine (50 μL) aliquots were analyzed for radioactivity concentrations. Radioactivity determinations of dose, plasma and urine were made with a Tri-Carb Model 3100 TR/LL liquid scintillation counter (LSC) (Perkin Elmer) using 10 mL of Ultima Gold as the scintillation fluid. […] Blood aliquots (50 μL), brain homogenates (0.1 gram) and fecal homogenates (0.2 gram) were placed on Combusto-cones with Combusto-pads and combusted. A model 307 Tri-Carb Sample Oxidizer, equipped with an Oximate-80 Robotic Automatic Sampler (Perkin Elmer), was used for combustion. The liberated ^14CO2 was trapped with Carbo-Sorb E carbon dioxide absorber, mixed with PermaFluor® E+ liquid scintillation cocktail, and counted in a Tri-Carb Model 3100 TR/LL liquid scintillation counter (Perkin Elmer). The oxidation efficiency of the oxidizer was 98.2%.

Km at 10 min [1]: 56.1 µM
Structure (SMILES): O=C(O)[C@H]1O[C@@H](OC(=O)N2CCN3C[C@@H]4CCC[C@@H]4c4cccc(c43)C2)[C@H](O)[C@@H](O)[C@@H]1O [Metabolite M6, carbamoyl glucuronide of DCDQ]

Structure (SMILES): c1cc2c3c(c1)[C@H]1CCC[C@H]1CN3CCNC2 [[^14C]DCDQ]
Blood concentration of radioactivity, Mean ± SD ([2]; female rats, 2 hr): 697 ± 219 ng equivalents/mL
Plasma concentration of radioactivity, Mean ± SD ([2]; female rats, 2 hr): 658 ± 189 ng equivalents/mL
Blood concentration of radioactivity, individuals ([2]; female rats, 2 hr): 661 ng equivalents/mL and 932 ng equivalents/mL and 499 ng equivalents/mL
Plasma concentration of radioactivity, individuals ([2]; female rats, 2 hr): 635 ng equivalents/mL and 857 ng equivalents/mL and 481 ng equivalents/mL
Blood concentration of radioactivity, Mean ± SD ([2]; female rats, 8 hr): 307 ± 68.4 ng equivalents/mL
Plasma concentration of radioactivity, Mean ± SD ([2]; female rats, 8 hr): 338 ± 60.7 ng equivalents/mL
Blood concentration of radioactivity, individuals ([2]; female rats, 8 hr): 413 ng equivalents/mL and 292 ng equivalents/mL and 406 ng equivalents/mL
Plasma concentration of radioactivity, individuals ([2]; female rats, 8 hr): 362 ng equivalents/mL and 269 ng equivalents/mL and 383 ng equivalents/mL
Blood concentration of radioactivity, Mean ± SD ([2]; male rats, 2 hr): 706 ± 158 ng equivalents/mL
Plasma concentration of radioactivity, Mean ± SD ([2]; male rats, 2 hr): 632 ± 144 ng equivalents/mL
Blood concentration of radioactivity, individuals ([2]; male rats, 2 hr): 606 ng equivalents/mL and 624 ng equivalents/mL and 888 ng equivalents/mL
Plasma concentration of radioactivity, individuals ([2]; male rats, 2 hr): 567 ng equivalents/mL and 531 ng equivalents/mL and 797 ng equivalents/mL
Blood concentration of radioactivity, Mean ± SD ([2]; male rats, 4 hr): 704 ± 18.7 ng equivalents/mL
Plasma concentration of radioactivity, Mean ± SD ([2]; male rats, 4 hr): 659 ± 16.5 ng equivalents/mL
Blood concentration of radioactivity, individuals ([2]; male rats, 4 hr): 698 ng equivalents/mL and 725 ng equivalents/mL and 689 ng equivalents/mL
Plasma concentration of radioactivity, individuals ([2]; male rats, 4 hr): 678 ng equivalents/mL and 652 ng equivalents/mL and 647 ng equivalents/mL
Blood concentration of radioactivity, Mean ± SD ([2]; male rats, 8 hr): 525 ± 45.3 ng equivalents/mL
Plasma concentration of radioactivity, Mean ± SD ([2]; male rats, 8 hr): 465 ± 43.1 ng equivalents/mL
Blood concentration of radioactivity, individuals ([2]; male rats, 8 hr): 538 ng equivalents/mL and 475 ng equivalents/mL and 562 ng equivalents/mL
Plasma concentration of radioactivity, individuals ([2]; male rats, 8 hr): 487 ng equivalents/mL and 415 ng equivalents/mL and 492 ng equivalents/mL
Blood concentration of radioactivity, Mean ± SD ([2]; male rats, 24 hr): 68.0 ± 10.0 ng equivalents/mL
Plasma concentration of radioactivity, Mean ± SD ([2]; male rats, 24 hr): 46.9 ± 8.30 ng equivalents/mL
Blood concentration of radioactivity, individuals ([2]; male rats, 24 hr): 66.5 ng equivalents/mL and 58.9 ng equivalents/mL and 78.7 ng equivalents/mL
Plasma concentration of radioactivity, individuals ([2]; male rats, 24 hr): 50.5 ng equivalents/mL and 37.4 ng equivalents/mL and 52.8 ng equivalents/mL
